Assay results: patent US8895079B2, “Combinations of botanical extracts for promoting cardiovascular health” (National Research Council of Canada, priority 2005, dated 2014)
Marks after values point to notes of the source that are not given here.

Assays:
[1] = system: hamsters fed an atherogenic control diet; experiment: Example 1: four week hamster study, plasma cholesterol and triglyceride levels; type: in vivo, Male Golden Syrian hamsters
Procedure: A controlled, four week animal study was performed to compare and contrast the effects of three interventional strategies on blood cholesterol and triglyceride levels. Four randomized groups of 15 male Golden Syrian hamsters were fed isocaloric diets as follows: • Control a semi-synthetic casein-corn starch-sucrose diet that contained 0.15% (w/w) cholesterol and 5% (w/w) fat • BBRCI control diet containing 100 mg/kg·d of BBRCI • PS control diet containing 1% (w/w) PS • BBRCI+PS control diet containing 100 mg/kg·d BBRCI and 1% (w/w) PS BBRCI and PS were introduced into the diet by blending. The primary endpoint at the end of the study was to determine the effects of each intervention on circulating blood lipids including total cholesterol (T-C), high-density-lipoprotein cholesterol (HDL-C), nonHDL-C (which is indicative of LDL-C levels) and triglyceride (TG) profiles. All lipids were measured by the standard enzymatic method. Male Golden Syrian Hamsters were purchased from Charles River Co. housed individually in cages for two weeks prior to the commencement of the study. During this adjustment period, animals were fed with regular rodent chow diet with free access to both food and water. A total of 60 hamsters were weighed and randomly assigned to one of four groups of 15 animals each. Animals are subjected to a temperature-controlled environment with a 12:12 h light/dark cycle. Each group was fed with one of the four isocaloric experimental diets for a 4 week period. […] During the course of the experiment, animals were weighed weekly and food consumption was determined on a daily basis over the course of the experiment. At the conclusion of the study all animals were anaesthetized with isoflurane and killed by decapitation. Blood samples were collected into tubes containing ethylenediaminetetraacetic acid (EDTA). Red blood cells and plasma were separated and stored at −80° C. until further analysis. Plasma was analyzed for total cholesterol, HDL-C and TG concentrations, for which results are reported below. NonHDL-C was calculated by subtracting HDL-C from total cholesterol. FIGS. 1-3 and Table 2 represent the effects of BBRCI and PS alone or in combination on blood cholesterol and triglyceride levels. Values are means±SD, n=15. Data were analyzed by one-way ANOVA followed by Tukey test if significance was detected. A significant difference was indicated by a p<0.05.

[2] = system: hamsters fed an atherogenic control diet; experiment: Example 1: tissue weight relative to body weight and histopathological examination of organs; type: in vivo, Male Golden Syrian hamsters
Procedure: Histopathological testing and examination of gross and microscopic examination of thin sections of the various organs were conducted by a certified pathologist. There were no significant changes in the appearance or weight of brain, lung, heart, spleen and kidney. However, the livers of control animals were observably yellowish and heavier than those of animals treated with BBRCI or plant stanols, or the combination of either. Table 3 summarizes the effect of BBRCI and plant stanols on the percent tissue weight relative to body weight.

[3] = system: intestinal ABCG5 mRNA; experiment: Example 1: intestinal ABCG5 mRNA expression, real-time PCR; type: in vivo, Male Golden Syrian hamsters; conditions: intestine; relative expression in reference to a housekeeping gene; Example 1, 4 weeks
Procedure: Experiments were also conducted to determine the effect on the expression of genes associated with cholesterol in the liver and intestine. Total RNA was extracted and mRNA was converted to cDNA. The mRNA expression was measured by real-time PCR with four repeats and calculated as relative expression in reference to internal control of a housekeeping gene for each sample. […] The function of ABCG5 and ABCG8 in the intestine is to transport cholesterol out of enterocytes and back to the intestine for elimination via the feces. […] The observation of our study (Example 1) has provided a strong support to the synergistic action of BBRCI and PS on cholesterol reduction.

[4] = system: hamsters fed a diet containing 0.25% cholesterol; experiment: Example 3: five week hamster study, blood lipid levels, 0.25% cholesterol diet, 0.5% PS; type: in vivo, male Golden Syrian hamsters; conditions: BBRCI 100 mg/kg·d and/or PS 0.5% (w/w)
Procedure: In this example, a controlled, five week animal study was performed. Four randomized groups of 12 or 6 male Golden Syrian hamsters were fed isocaloric diets as follows. The dosage of PS was reduced from 1% to 0.5% (w/w) in the diet. Hamster husbandry, living and feeding conditions were similar to that in Example 1. • Control a semi-synthetic casein-corn starch-sucrose diet that contained 0.25% (w/w) cholesterol • BBRCI control diet containing 100 mg/kg·d of BBRCI • PS control diet containing 0.5% (w/w) PS • BBRCI+PS control diet containing 100 mg/kg·d BBRCI and 0.5% (w/w) PS One objective of this example was to determine the effects of each intervention on circulating blood lipids including total cholesterol (T-C), high-density-lipoprotein cholesterol (HDL-C), nonHDL-C (which is indicative of LDL-C levels) and triglyceride (TG) profiles. Table 8 summarizes the effect on blood lipid levels (values are means±SD, n=12). Data were analyzed by one-way ANOVA followed by Tukey test if significance was detected. A significant difference was indicated by a p<0.05. […] When BBRCI and PS were given to hamsters simultaneously, significant synergistic actions were observed on […] and TG levels. A synergistic action of BBRCI and PS was also observed on the ratio of HDL-C and nonHDL-C.

[5] = Example 1, 4 weeks, BBRCI 100 mg/kg·d and/or PS 1% (w/w)
[6] = Example 1, BBRCI 100 mg/kg·d, PS 1% (w/w)
[7] = plasma, 0.15% cholesterol diet, 4 weeks, BBRCI 100 mg/kg·d and/or PS 1% (w/w), means±SD, n=15
[8] = 0.25% cholesterol diet, 5 weeks, means±SD

In the case of `COc1ccc2cc3[n+](cc2c1OC)CCc1cc2c(cc1-3)OCO2` [BBRCI, Berberine chloride], the “HDL-C % difference from Control” value [1, 5] is reported as −16.2%, the “HDL-C/nonHDL-C % difference from Control” value [1, 5] is reported as 19% and the “T-C % difference from Control” value [1, 5] is reported as −21.9%. For the same molecule, the “TG % difference from Control” value [1, 5] was −3.9%, the “nonHDL-C % difference from Control” value [1, 5] was −28.2% and the “reduction of T-C relative to control” value [1, 6] was 22%. The “reduction of nonHDL-C relative to control” value [1, 6] was 28%, the “reduction of plasma TG levels” value ([1]; Example 1, relative to control, BBRCI 100 mg/kg·d, PS 1% (w/w)) was 4% and the “T-C Concentration” value ([1]; plasma, 0.15% cholesterol diet, 4 weeks, BBRCI 100 mg/kg·d and/or PS 1% (w/w) in diet, means±SD, n=15) was 169 ± 20^b mg/dl. For the same molecule, the “HDL-C Concentration” value [1, 7] was 100 ± 17^b mg/dl, the “TG Concentration” value [1, 7] was 326 ± 111^a mg/dl and the “nonHDL-C Concentration” value ([1]; plasma, calculated by subtracting HDL-C from total cholesterol, 0.15% cholesterol diet, 4 weeks, BBRCI 100 mg/kg·d and/or PS 1% (w/w), n=15) was 66 ± 14^b mg/dl. The HDL-C/nonHDL-C ([1]; ratio, plasma, 0.15% cholesterol diet, 4 weeks, BBRCI 100 mg/kg·d and/or PS 1% (w/w), n=15) was 1.60 ± 0.58^b, the “Liver, percent tissue weight relative to body weight” value [2, 5] was 4.4 ± 0.4^b percent and the “appearance of fatty liver” value ([2]; Example 1, compared to the livers of the control animals) was “markedly reduced the appearance of fatty liver”. For the same molecule, the “ABCG5 mRNA expression” value [3] was 2.37 ± 0.70^a, the “nonHDL-C Concentration” value ([4]; 0.25% cholesterol diet, 5 weeks) was 173.5 ± 66.5^ab mg/dl and the “HDL-C Concentration” value [4, 8] was 93.1 ± 27.1 mg/dL. For the same molecule, the “T-C Concentration” value [4, 8] was 264.7 ± 49.8^a mg/dl, the “TG Concentration” value [4, 8] was 549.1 ± 225.3^a mg/dl and the “HDL-C % difference from Control” value ([4]; Example 3, 5 weeks) was 1.7%. The “HDL-C/nonHDL-C % difference from Control” value ([4]; Example 3, 5 weeks) was 29%, the “T-C % difference from Control” value ([4]; Example 3, 5 weeks) was −7.8% and the “TG % difference from Control” value ([4]; Example 3, 5 weeks) was −0.2%. For the same molecule, the “nonHDL-C % difference from Control” value ([4]; Example 3, 5 weeks) was −11.1% and the HDL-C/nonHDL-C ([4]; ratio, 0.25% cholesterol diet, 5 weeks) was 0.66 ± 0.41^b.
